Calls of active or inactive are those of the source. The calls are words filed in the database; no cut-off is given here.

The term EC50 denotes the concentration needed to bring the measured effect to its halfway point.

Data set [1] deals with T1, Toll-like receptor 4 (Homo sapiens, UniProt O00206). Kind of data set: Agonist activity at TLR4 in human PBMC cells assessed as induction of RANTES release incubated for 20 hrs by ELISA. Format: cell-based. (In general: An ELISA detects its analyte on a solid surface through an enzyme-linked reagent.)
Data set [2] deals with T2, Toll-like receptor 4 (Mus musculus, UniProt Q9QUK6).
T2 sequence (Q9QUK6 whole entry): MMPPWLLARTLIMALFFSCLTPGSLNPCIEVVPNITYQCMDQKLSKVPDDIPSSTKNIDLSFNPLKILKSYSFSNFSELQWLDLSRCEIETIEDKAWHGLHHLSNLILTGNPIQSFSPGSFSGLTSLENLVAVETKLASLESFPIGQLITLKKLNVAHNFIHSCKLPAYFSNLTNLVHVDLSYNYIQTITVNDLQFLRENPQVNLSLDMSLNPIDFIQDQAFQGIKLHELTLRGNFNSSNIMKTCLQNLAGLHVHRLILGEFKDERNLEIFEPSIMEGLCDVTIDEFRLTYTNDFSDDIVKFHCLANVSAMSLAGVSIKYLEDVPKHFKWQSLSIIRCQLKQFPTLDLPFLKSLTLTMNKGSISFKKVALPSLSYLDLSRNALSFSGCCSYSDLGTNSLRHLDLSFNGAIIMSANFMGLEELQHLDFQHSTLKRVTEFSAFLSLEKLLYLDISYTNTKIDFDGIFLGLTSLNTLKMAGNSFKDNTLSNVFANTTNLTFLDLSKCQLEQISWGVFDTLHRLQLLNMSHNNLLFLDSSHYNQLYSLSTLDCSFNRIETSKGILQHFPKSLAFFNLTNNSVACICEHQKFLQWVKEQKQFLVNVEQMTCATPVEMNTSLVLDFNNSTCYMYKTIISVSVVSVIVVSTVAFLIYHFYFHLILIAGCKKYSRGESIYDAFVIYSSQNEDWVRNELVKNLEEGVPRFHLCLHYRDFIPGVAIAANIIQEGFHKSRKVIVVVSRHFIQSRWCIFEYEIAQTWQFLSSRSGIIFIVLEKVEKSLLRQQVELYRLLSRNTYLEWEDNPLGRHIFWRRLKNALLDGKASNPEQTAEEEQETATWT
Kind of data set: Agonist activity at mouse TLR4 in human HEK-Blue mTLR4 cells assessed as NF-kappaB activation incubated for 48 hrs by SEAP reporter gene based Quanti-blue assay. It is filed as cell-based. (In a reporter assay the amount or activity of a reporter protein is the signal.)

The target in data set [3] is T1, Toll-like receptor 4. Kind of data set: Agonist activity at TLR4 in human MONO-MAC-6 cells assessed as induction of MIP-1beta release incubated for 24 hrs by ELISA. Format: cell-based.
In data set [4] the target is T1, Toll-like receptor 4. The data set can be described thus: Agonist activity at TLR4 in human PBMC cells assessed as induction of IL-1beta release incubated for 20 hrs by ELISA. It is filed as cell-based.
For data set [5], the system named is Mus musculus. The data set can be described thus: Immuno-adjuvant activity in H3N2-A/HK/68 influenza virus-immunized BALB/c mouse model assessed as increase in survival rate at 1 ug,INH administered 48hrs prior to influenza challenge and measured after 18 days. To be noted: dose 1 µg, time 18 day. It is filed as functional.
Data set [6] can be described thus: Toxicity in H3N2-split A/Victoria/210/2009 influenza virus-immunized BALB/c mouse model assessed as reactogenicity at 0.001 to 0.1 ug,IM administered on day 0 and 14 and measured after 28 days. To be noted: in vivo, 672 h, dose 0.001-0.1 µg, time 28 day.
Data set [7] has as its system Mus musculus. The data set can be described thus: Immuno-adjuvant activity in H3N2-split A/Victoria/210/2009 influenza virus-immunized BALB/c mouse model assessed as increase in influenza specific serum IgG1 titer level at 0.001 to 0.1 ug,IM administered on day 0 and 14 and measured after 28 days by ELISA. It is filed as functional, organism-based. To be noted: dose 0.001-0.1 µg, time 28.0 day.

The target in data set [8] is T1, Toll-like receptor 4. Kind of data set: Agonist activity at TLR4 in human PBMC cells assessed as induction of MIP-1beta release incubated for 20 hrs by ELISA. Format: cell-based.
Data set [9] has as its system Mus musculus. The data set can be described thus: Immuno-adjuvant activity in H3N2-A/HK/68 influenza virus-immunized BALB/c mouse model assessed as increase in survival rate at 10 ug,INH administered 48hrs prior to influenza challenge and measured after 18 days. Particulars: dose 10 µg, time 18 day. It is filed as functional.
In data set [10] the target is T2, Toll-like receptor 4. Kind of data set: Agonist activity at TLR4 in mouse RAW264.7 cells assessed as induction of MIP-1beta release incubated for 24 hrs by ELISA. Format: cell-based.
The nature of data set [11]: Toxicity in H3N2-A/HK/68 influenza virus-immunized BALB/c mouse model assessed as disease index at 1 to 10 ug,INH administered 48hrs prior to influenza challenge and measured after 18 days. Particulars: in vivo, inhaled_or_intranasal, 432 h, dose 1-10 µg, time 18 day.
A short description of data set [12]: Toxicity in H3N2-A/HK/68 influenza virus-immunized BALB/c mouse model assessed as body weight change at 1 to 10 ug,INH administered 48hrs prior to influenza challenge and measured after 18 days. Particulars: in vivo, inhaled_or_intranasal, 432 h, dose 1-10 µg, time 18 day.
Data set [13] relates to Mus musculus. Kind of data set: Immuno-adjuvant activity in H3N2-split A/Victoria/210/2009 influenza virus-immunized BALB/c mouse model assessed as increase in influenza specific serum IgG2a titer level at 0.001 to 0.1 ug,IM administered on day 0 and 14 and measured after 28 days by ELISA. Particulars: dose 0.001-0.1 µg, time 28.0 day. It is filed as functional, organism-based.

The nature of data set [14]: Toxicity in H3N2-split A/Victoria/210/2009 influenza virus-immunized BALB/c mouse model assessed as abnormality at 0.001 to 0.1 ug,IM administered on day 0 and 14 and measured after 28 days. To be noted: in vivo, 672 h, dose 0.001-0.1 µg, time 28 day.
Data set [15] is described as follows: Aqueous stability of the compound assessed as drug degradation at 40 degreeC and measured after 3 months by LC-MS analysis. It is filed as physicochemical. To be noted: buffer, 2190 h.
Data set [16] deals with T1, Toll-like receptor 4. The data set can be described thus: Agonist activity at human TLR4 in human HEK-Blue hTLR4 cells assessed as NF-kappaB activation incubated for 48 hrs by SEAP reporter gene based Quanti-blue assay. It is filed as cell-based.
Data set [17] in a line: Toxicity in H3N2-A/HK/68 influenza virus-immunized BALB/c mouse model assessed as change in body temperature at 1 to 10 ug,INH administered 48hrs prior to influenza challenge and measured after 18 days. To be noted: in vivo, inhaled_or_intranasal, 432 h, dose 1-10 µg, time 18 day.
For data set [18], the species on record is Mus musculus. The data set can be described thus: Immuno-adjuvant activity in H3N2-split A/Victoria/210/2009 influenza virus-immunized BALB/c mouse model assessed as increase in influenza specific serum IgG1 titer level at 0.001 to 0.1 ug,IM and measured after 14 days by ELISA. Format: functional, organism-based. Particulars: dose 0.001-0.1 µg, time 14.0 day.

Data set [19] concerns the target T1, Toll-like receptor 4. Kind of data set: Agonist activity at TLR4 in human PBMC cells assessed as induction of TNFalpha release incubated for 20 hrs by ELISA. It is filed as cell-based.
For data set [20], the system named is Mus musculus. The data set can be described thus: Immuno-adjuvant activity in H3N2-split A/Victoria/210/2009 influenza virus-immunized BALB/c mouse model assessed as increase in influenza specific serum IgG titer level at 0.001 to 0.1 ug,IM administered on day 0 and 14 and measured after 28 days by ELISA. It is filed as functional, organism-based. To be noted: dose 0.001-0.1 µg, time 28.0 day.

Data set [21] is filed under the species Mus musculus. Kind of data set: Immuno-adjuvant activity in H3N2-split A/Victoria/210/2009 influenza virus-immunized BALB/c mouse model assessed as increase in influenza specific serum IgG titer level at 0.001 to 0.1 ug,IM and measured after 14 days by ELISA. It is filed as functional, organism-based. To be noted: dose 0.001-0.1 µg, time 14.0 day.
A short description of data set [22]: Aqueous stability of the compound assessed as drug degradation at 40 degreeC and measured upto 12 months by LC-MS analysis. It is filed as physicochemical. Particulars: aqueous solution, read-out: Drug degradation.
The nature of data set [23]: Aqueous stability of the compound assessed as drug degradation at 2 to 8 degreeC and measured upto 12 months by LC-MS analysis. It is filed as physicochemical. To be noted: buffer, 8760 h.
The nature of data set [24]: Aqueous stability of the compound assessed as drug degradation at 2 to 8 degreeC and measured upto 12 months by RP-HPLC analysis. Format: physicochemical. Particulars: buffer, 8760 h.
The species named for data set [25] is Mus musculus. The data set can be described thus: Immuno-adjuvant activity in H3N2-split A/Victoria/210/2009 influenza virus-immunized BALB/c mouse model assessed as increase in influenza specific serum IgG2a titer level at 0.001 to 0.1 ug,IM and measured after 14 days by ELISA. It is filed as functional, organism-based. Particulars: dose 0.001-0.1 µg, time 14.0 day.

A short description of data set [26]: Aqueous stability of the compound assessed as drug degradation at 40 degreeC and measured after 12 months by RP-HPLC analysis. Format: physicochemical. Particulars: aqueous solution, read-out: Drug degradation.
Data set [27] in a line: Aqueous stability of the compound assessed as drug degradation at 2 to 8 degreeC and measured after 1 month by LC-MS analysis. Particulars: buffer, 730 h; time 1 months. Format: physicochemical.

T1 sequence (O00206 whole entry): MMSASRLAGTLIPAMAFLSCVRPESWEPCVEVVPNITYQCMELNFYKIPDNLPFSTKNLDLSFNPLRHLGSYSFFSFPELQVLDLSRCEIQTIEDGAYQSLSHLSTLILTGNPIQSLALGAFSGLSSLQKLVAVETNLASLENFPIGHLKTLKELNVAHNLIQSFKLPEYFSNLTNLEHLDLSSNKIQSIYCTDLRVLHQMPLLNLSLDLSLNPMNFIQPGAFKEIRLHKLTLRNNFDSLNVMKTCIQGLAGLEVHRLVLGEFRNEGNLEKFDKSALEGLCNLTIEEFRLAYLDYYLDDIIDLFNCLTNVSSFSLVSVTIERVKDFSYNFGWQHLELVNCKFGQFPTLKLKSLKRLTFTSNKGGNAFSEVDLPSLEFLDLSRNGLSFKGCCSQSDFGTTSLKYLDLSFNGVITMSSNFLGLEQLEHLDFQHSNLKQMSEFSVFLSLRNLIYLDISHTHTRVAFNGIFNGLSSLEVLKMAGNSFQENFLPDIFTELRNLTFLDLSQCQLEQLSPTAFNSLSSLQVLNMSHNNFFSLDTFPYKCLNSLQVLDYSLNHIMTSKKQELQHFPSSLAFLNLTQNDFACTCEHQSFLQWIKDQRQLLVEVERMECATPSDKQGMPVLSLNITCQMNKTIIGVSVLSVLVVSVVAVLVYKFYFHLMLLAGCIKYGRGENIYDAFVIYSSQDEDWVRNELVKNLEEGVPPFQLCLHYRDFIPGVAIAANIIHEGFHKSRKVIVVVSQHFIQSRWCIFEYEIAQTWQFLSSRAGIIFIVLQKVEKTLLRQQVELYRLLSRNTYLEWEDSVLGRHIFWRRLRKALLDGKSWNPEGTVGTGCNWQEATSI

`CCCCCCCCCCC[C@H](CC(=O)N[C@H]1[C@H](OC[C@H](NC(=O)C[C@@H](CCCCCCCCCCC)OCCCCCCCCCC)C(=O)O)O[C@H](CO)[C@@H](OP(=O)(O)O)[C@@H]1OC(=O)C[C@@H](CCCCCCCCCCC)OCCCCCCCCCC)OCCCCCCCCCC`: the EC50 in data set [1] was found to be 0.014 nM; in [2], 0.005 nM; in data set [3] it was 0.06 nM; in data set [4], 0.028 nM; in data set [8] it was 0.01 nM; in data set [10] it was 0.015 nM. Further, the EC50 in data set [16] amounted to 0.93 nM; in [19], 0.26 nM. In addition, the Survival was found to be 60% in data set [5] and 100% in data set [9]. In addition, the Activity entry was “Non-Toxic” in data set [6]; “Non-Toxic” in data set [11]; “Non-Toxic” in data set [12]; “Non-Toxic” in data set [14]; “Non-Toxic” in data set [17]; “Dose-Dependent Effect” in [18]. Further, the Activity result in data set [21] was “Dose-Dependent Effect”. Besides, the outcome in [7], in data set [13] and in [20] was Active. The Stability entry in data set [15] is “Stable”.

In the case of `CCCCCCCCCCC[C@H](CC(=O)NCCO[C@@H]1O[C@H](CO)[C@@H](OS(=O)(=O)O)[C@@H](NC(=O)C[C@@H](CCCCCCCCCCC)OC(=O)CCCCCCCCC)[C@H]1NC(=O)C[C@@H](CCCCCCCCCCC)OC(=O)CCCCCCCCC)OC(=O)CCCCCCCCC.CCN(CC)CC`, the EC50 came out at 7.01 nM in data set [1]; 2.64 nM in data set [2]; 39.5 nM in [3]; 20.4 nM in data set [4]; 2.87 nM in [8]; 0.31 nM in data set [10]. Further, the EC50 in [16] was 449 nM; in data set [19], 116 nM. For the same molecule, the degraded at 8760 h in data set [22] is 8%; in data set [26], less than 10%. Moreover, the Stability result in data set [23] and in data set [24] was “Stable” each time. Besides, the Activity result in data set [6] is “Non-Toxic”; in data set [25], “Dose-Dependent Effect”; in data set [14] it was “Non-Toxic”; in [18], “Dose-Dependent Effect”; in [21], “Dose-Dependent Effect”. For the same molecule, the result in [7], in data set [13] and in data set [20] was Active.

`CCCCCCCCCCC[C@H](CC(=O)NCCO[C@@H]1O[C@H](CO)[C@@H](OP(=O)(O)O)[C@H](OC(=O)C[C@@H](CCCCCCCCCCC)OC(=O)CCCCCCCCC)[C@H]1NC(=O)C[C@@H](CCCCCCCCCCC)OC(=O)CCCCCCCCC)OC(=O)CCCCCCCCC`: the EC50 in [1] is 1.26 nM; in [2], 0.43 nM; in data set [3], 6.75 nM; in data set [4], 2.62 nM; in data set [8] it was 1.94 nM; in [10], 0.48 nM. Moreover, the EC50 in data set [16] is 173 nM; in data set [19] it was 53.7 nM. Further, the Stability entry in [27] is “Stable”.
